These are literature values, as cited in patent US20120040397A1, “Photo-Crosslinked Nucleic Acid Hydrogels” (priority 2008, published 2012).

The conditions of data set [1]: in vivo.
Data set [2] addresses T1, PPAR-gamma (Homo sapiens, UniProt P37231).
T1 sequence (P37231 1-505): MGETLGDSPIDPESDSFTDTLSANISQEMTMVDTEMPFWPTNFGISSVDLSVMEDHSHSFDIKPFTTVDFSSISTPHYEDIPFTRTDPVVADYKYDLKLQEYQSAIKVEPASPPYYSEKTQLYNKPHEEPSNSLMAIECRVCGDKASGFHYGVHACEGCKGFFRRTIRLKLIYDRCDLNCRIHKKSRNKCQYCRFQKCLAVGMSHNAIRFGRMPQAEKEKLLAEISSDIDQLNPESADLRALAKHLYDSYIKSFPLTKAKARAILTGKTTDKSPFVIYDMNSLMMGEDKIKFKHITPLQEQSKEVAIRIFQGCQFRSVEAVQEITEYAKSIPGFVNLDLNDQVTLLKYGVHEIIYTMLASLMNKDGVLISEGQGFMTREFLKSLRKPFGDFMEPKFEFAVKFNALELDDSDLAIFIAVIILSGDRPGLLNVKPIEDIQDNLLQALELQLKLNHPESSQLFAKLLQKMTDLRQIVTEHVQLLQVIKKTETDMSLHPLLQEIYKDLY
As to conditions: context-specific, depends on cell type.

For the compound `O=C1NC(=O)C(Cc2ccc3cc(OCc4ccccc4F)ccc3c2)S1` (stereo not drawn) [netoglitazone, 5-[{6-(2-fluorobenzyl)oxy-2-naphthyl}methyl]-2,4-thiazolidinedione], in data set [1], the “efficacy in lowering plasma glucose, insulin, and triglyceride levels versus pioglitazone and troglitazone” value was “more efficacious”; the “potency relative to rosiglitazone” value is on record as “about three-fold”. Moreover, in data set [2], the PPAR-gamma modulation result was “full agonist of PPAR-gamma and as a partial agonist or antagonist in others”.
